{"source": "patent US12490740B2", "about": "“Active compound combinations having insecticidal properties” (Bayer Aktiengesellschaft, priority 2019, dated 2025)", "key": {"Spodoptera frugiperda": {"system": "Spodoptera frugiperda", "assay": "Spodoptera frugiperda - spray test (cotton leaves)", "format": "in vivo", "procedure": "(§1) The expected efficacy of a given combination of two compounds is calculated as follows (see Colby, S. R., “Calculating Synergistic and antagonistic Responses of Herbicide Combinations”, Weeds 15, pp. 20-22, 1967): • If • X is the efficacy expressed in % mortality of the untreated control for test compound A at a concentration of m ppm respectively m g/ha, • Y is the efficacy expressed in % mortality of the untreated control for test compound B at a concentration of n ppm respectively n g/ha, • E is the efficacy expressed in % mortality of the untreated control using the mixture of A and B at m and n ppm respectively m and n g/ha, • then is\n(§2) If the observed insecticidal efficacy of the combination is higher than the one calculated as “E”, then the combination of the two compounds is more than additive, i.e. there is a synergistic effect.\nSpodoptera frugiperda—Spray Test\n(§3) • Solvent: 7 parts by weight of dimethylformamide • Emulsifier: alkylaryl polyglycol ether\n(§4) To produce a suitable preparation of active compound, 1 part by weight of active compound is mixed with the stated amount of solvent and is diluted with water, containing an emulsifier concentration of 1000 ppm, to the desired concentration. Further test concentrations are prepared by dilution with emulsifier containing water.\nCotton leaves (Gossypium hirsutum) are treated by being sprayed with the preparation of the active compound of the desired concentration and are infested with caterpillars of the fall army worm (Spodoptera frugiperda).\nAfter the specified period of time mortality in % is determined. 100% means all the caterpillars have been killed and 0% means none of the caterpillars have been killed. The mortality values determined thus are recalculated using the Colby-formula (see above)."}, "Phaedon cochleariae": {"system": "Phaedon cochleariae", "assay": "Phaedon cochleariae - spray test (cabbage leaves)", "format": "in vivo", "procedure": "as §1, §2\nPhaedon cochleariae—Spray Test\nas §3, §4\nCabbage leaves (Brassica oleracea) are treated by being sprayed with the preparation of the active compound of the desired concentration and are infested with mustard beetle larvae (Phaedon cochleariae).\nAfter the specified period of time mortality in % is determined. 100% means all the beetle larvae have been killed and 0% means none of the beetle larvae have been killed. The mortality values determined thus are recalculated using the Colby-formula (see sheet 1)."}, "[1]": {"conditions": "Spodoptera frugiperda, 72 h, read-out: Mortality in % after 3 days"}}, "note": "Read-outs that look alike come from different tables or passages of the source.", "data": [{"compound": "CON(C(=O)c1cn(C)nc1C(F)F)C(C)Cc1c(Cl)cc(Cl)cc1Cl", "note": "(racemic) [Pydiflumetofen, 3-(difluoromethyl)-N-methoxy-1-methyl-N—[(RS)-1-methyl-2-(2,4,6-trichlorophenyl)ethyl]-1H-pyrazole-4-carboxamide]", "values": [{"measurement": "mortality at 1.5 ppm", "setting": "Spodoptera frugiperda; Spodoptera frugiperda, 48 h, read-out: Mortality in % after 2 days", "result": 0, "unit": "%"}, {"measurement": "mortality at 1.5 ppm", "setting": "Spodoptera frugiperda; [1]", "result": 0, "unit": "%"}, {"measurement": "mortality at 3 ppm", "setting": "Spodoptera frugiperda; [1]", "result": 0, "unit": "%"}, {"measurement": "mortality at 1.5 ppm", "setting": "Spodoptera frugiperda; Spodoptera frugiperda, 144 h, read-out: Mortality in % after 6 days", "result": 0, "unit": "%"}]}, {"compound": "CS(=O)(=O)Oc1cccc(Cl)c1C1CC(c2csc(C3CCN(C(=O)Cn4nc(C(F)F)cc4C(F)F)CC3)n2)=NO1", "note": "(centres unmarked) [Fluoxapiprolin, fluoxapiprolin]", "values": [{"measurement": "Mortality in % after 1 day", "setting": "Phaedon cochleariae; 3 ppm", "result": 0, "unit": "%"}, {"measurement": "Mortality in % after 2 days", "setting": "Phaedon cochleariae; 3 ppm", "result": 0, "unit": "%"}, {"measurement": "Mortality in % after 1 day", "setting": "Phaedon cochleariae; 6 ppm", "result": 0, "unit": "%"}]}, {"compound": "tetraniliprole", "values": [{"measurement": "Mortality in % after 1 day", "setting": "Phaedon cochleariae; 0.12 ppm", "result": 10, "unit": "%"}, {"measurement": "Mortality in % after 2 days", "setting": "Phaedon cochleariae; 0.12 ppm", "result": 40, "unit": "%"}, {"measurement": "Mortality in % after 1 day", "setting": "Phaedon cochleariae; 0.24 ppm, beetle larvae on sprayed cabbage leaves", "result": 30, "unit": "%"}, {"measurement": "Mortality in % after 2 days", "setting": "Spodoptera frugiperda; 0.06 ppm, after 2 days, caterpillars on sprayed cotton leaves", "result": 20, "unit": "%"}, {"measurement": "Mortality in % after 3 days", "setting": "Spodoptera frugiperda; 0.06 ppm", "result": 30, "unit": "%"}, {"measurement": "Mortality in % after 6 days", "setting": "Spodoptera frugiperda; 0.06 ppm, after 6 days", "result": 60, "unit": "%"}, {"measurement": "Mortality in % after 3 days", "setting": "Spodoptera frugiperda; 0.12 ppm", "result": 80, "unit": "%"}]}]}
